Patent US5326764A, “Method for the treatment of hyperproliferative disorders” (Yale University, priority 1993, dated 1994)

Tested on: human neonatal foreskin keratinocytes
Assay: Keratinocyte growth by cell counting after seven days
Format: cell-based
Conditions: 168 h

| SMILES | inhibition at 0.1 µM (read-out: inhibition of growth of keratinocytes) | inhibition at 0.5 µM (read-out: inhibition of cell growth) |
| --- | --- | --- |
| CN(Cc1cnc2nc(N)nc(N)c2n1)c1ccc(C(=O)N[C@@H](CCC(=O)O)C(=O)O)cc1 [methotrexate] | 32% |  |
| O=c1[nH]cc(F)c(=O)[nH]1 [5-fluorouracil] |  | 30% |
